According to patent publication US6337314B1, “Mammalian-derived peptides for the treatment of microbial infections” (Theragem, Inc., priority 1997, dated 2002):
Where two headings read alike, the source gives them in different places. Marks after values point to notes of the source that are not given here. No end group written: not given here.

Legend:
Format in all cases: cell-based
[1] = test system: Streptococcus faecalis ATCC 8043; assay: Radial diffusion assay for antibiotic activity against Streptococcus faecalis ATCC 8043
Procedure: (§1) Staphylococcus aureus was strain RN6390, Pseudomonas aeruginosa was strain PA01, Escherichia coli was strain MC4100, Streptococcus faecalis was ATCC 8043 and Candida albicans was a clinical isolate from the Presbyterian Hospital.
E. Radial diffusion assay for antibiotic activity against Streptococcus faecalis ATCC 8043
A single colony is inoculated in 10 mL of TSB overnight shaking at 37C. Approximately 0.3 ml is added to 10 mL fresh TSB and shaken at 37° C. This is allowed to grow to mid-log phase (OD600=0.6). The culture is washed 2× in NaPB pH 5.5 by spinning at 5000 rpm. for 10 min. OD is rechecked after washing to determine exact bacterial concentration. The washed bacteria are added at a concentration of 10^7/plate to the lower layer (NaPB pH 5.5/1% Low Electroendosmosis agarose). Dilutions of Hemoglobin dilutions in NaPB pH 5.5 are added to the plate, allowed to diffuse in the layer, and incubated in wet box at 37C for 3 hours. Following the incubation, 10 mL of nutrient medium, 6% TSB and 1% Bactoagar, is added as a top layer and plates are incubated in the wet box overnight at […].
(§2) Measurement of the antimicrobial activity of human hemoglobin, its heme-free α and β chains, CNBr-derived fragments of the α and β chains, and synthetic peptides derived therefrom were determined by radial diffusion assay and in some cases by plate assay. […] MIC is estimated by linear extrapolation of data points to an intercept with the x axis.
Each assay was performed with 3 experimental runs except where indicated. The radial diffusion assay is reliable and gives consistent results when used with the purified or semipurified compositions of the invention. The assay method was patterned after that of Lee et al (23).

Candida albicans = test system: Candida albicans
Procedure: as §1
B. Radial diffusion assay
The fungus is grown for 3 hrs from an overnight culture in Sabouraud dextrose broth, centrifuged at 10,000 g for 10 min, washed twice in NaPB pH 5.5, and resuspended in NaPB (pH 5.5) at a final concentration of 4×10^7/ml. A 0.1 ml aliquot of this fungal suspension (4×10^6 CFU) is added to 10 ml of autoclaved and cooled to (42° C.) NaPB pH 5.5 containing 1% w/v of low electroendosmosis type agarose (Sigma). After mixing the fungus in, the agar is poured into Lab-Tek square Petri dishes to form a uniform 1 mm thick layer. Wells with a 3 mm diameter are punched in and filled with 5 μl of control or sample, the plates are incubated for 3 hrs at 37° C. and overlaid with 10 ml of sterile agar maintained at 42° C. The overlay agar is 2× Sabouraud agar. After incubation of 18-24 hrs at 37° C., the diameter of the clear zone surrounding the wells containing an antifungal agent is measured.
as §2
(§3) Each assay was performed with 3 experimental runs except where indicated. […] The assay method was patterned after that of Lee et al (23).

[2] = test system: Pseudomonas aeroginosa PA01; assay: Radial diffusion assay for antibiotic activity against Pseudomonas aeroginosa PA01; conditions: Pseudomonas aeruginosa
Procedure: Staphylococcus aureus was strain RN6390, Pseudomonas aeruginosa was strain PA01, Escherichia coli was strain MC4100, Streptococcus faecalis was ATCC 8043 and Candida albicans was a clinical isolate from the Presbyterian Hospital. C. Radial diffusion assay for antibiotic activity against Pseudomonas aeroginosa PA01 A single colony of Pseudomonas aeroginosa PA01 is inoculated into trypticase soy broth and grown to mid-exponential phase (OD600−0.7). […] A 0.2 ml aliquot of this bacterial suspension (10^7CFU/ml) is added to 10 ml of autoclaved and cooled (to 42° C.) NaPB buffer, 1% w/v of low electroendosmosis type agarose (Sigma). After mixing the bacteria in, the agarose is poured in Lab-Tek square Petri dishes to form a uniform thick layer. Wells with a 2.7 mm diameter are punched in and filled with 4.5 ul of control or sample, the plates are incubated for 3 hours at 37° C., and overlaid with 10 ml of sterile agar maintained at 42° C. The overlay agar is 6% (w/v) TSB and 1% w/v Bacto-agar. After incubation for 18-24 hours at37° C., the diameter of the clear zone surrounding the wells containing an antibacterial agent is measured. Measurement of the antimicrobial activity of human hemoglobin, its heme-free α and β chains, CNBr-derived fragments of the α and β chains, and synthetic peptides derived therefrom were determined by radial diffusion assay and in some cases by plate assay. […] MIC is estimated by linear extrapolation of data points to an intercept with the x axis. Each assay was performed with 3 experimental runs except where indicated. The radial diffusion assay is reliable and gives consistent results when used with the purified or semipurified compositions of the invention. The assay method was patterned after that of Lee et al (23).

[3] = test system: Staphylococcus aureus RN6390; assay: Radial diffusion assay for antibiotic activity against Staphylococcus aureus RN6390; conditions: pH 5.5, radial diffusion
From the text: Staphylococcus aureus was strain RN6390, Pseudomonas aeruginosa was strain PA01, Escherichia coli was strain MC4100, Streptococcus faecalis was ATCC 8043 and Candida albicans was a clinical isolate from the Presbyterian Hospital. B. Radial diffusion assay for antibiotic activity against Staphylococcus aureus RN6390 A single colony of Staphylococcus aureus RN6390 is inoculated into CYGP broth and grown to mid-exponential phase (OD600=0.7). The cultures are washed in NaPB pH 5.5 and dissolved to a final concentration of 5×10^7 CFU/ml. A 0.2 ml aliquot of this bacterial suspension (10^7 CFU) is added to 10 ml of autoclaved and cooled (to 42° C.) NaPB buffer, 1% w/v of low electroendosmosis type agarose (Sigma). After mixing the bacteria in, the agarose is poured in Lab-Tek square Petri dishes to form a uniform thick layer. Wells with a 2.7 mm diameter are punched in and filled with 4.5 ul of control or sample, the plates are incubated for 3 hours at 37° C., and overlaid with 10 ml of sterile agar maintained at 42° C. The overlay agar is 2× CYGP broth and 1% w/v Bacto-agar. After incubation for 18-24 hours at 37° C., the diameter of the clear zone surrounding the wells containing an antibacterial agent is measured. Measurement of the antimicrobial activity of human hemoglobin, its heme-free α and β chains, CNBr-derived fragments of the α and β chains, and synthetic peptides derived therefrom were determined by radial diffusion assay and in some cases by plate assay. […] MIC is estimated by linear extrapolation of data points to an intercept with the x axis. Each assay was performed with 3 experimental runs except where indicated. The radial diffusion assay is reliable and gives consistent results when used with the purified or semipurified compositions of the invention. The assay method was patterned after that of Lee et al (23).

Escherichia coli MC4100 [4] = conditions: pH 7.4, radial diffusion
Escherichia coli MC4100 [5] = test system: Escherichia coli MC4100
From the text: as §1
D. Radial diffusion assay for antibiotic activity against Escherichia coli MC4100
A single colony of Escherichia coli MC4100 is inoculated into trypicase soy broth and grown to mid-exponential phase (OD600−0.7). The cultures are washed in NaPB pH 5.5 and dissolved to a final concentration of 5×10^7CFU/ml. A 0.2 ml aliquot of this bacterial suspension (10^7CFU/ml) is added to 10 ml of autoclaved and cooled (to 42° C.) NaPB containing 0.02% Bovine Serum Albumin (BSA) and 0.02% Triton X100., 1% w/v of low electroendosmosis type agarose (Sigma). After mixing the bacteria in, the agarose is poured into Lab-Tek square Petri dishes to form a uniform thick layer. Wells with a 2.7 mm diameter are punched in and filled with 4.5 ul of control or sample, the plates are incubated for 3 hours at 37° C., and overlaid with 10 ml of sterile agar maintained at 42° C. The overlay agar is 6% (w/v) TSB and 1% w/v Bacto-agar. After incubation for 18-24 hours at 37° C., the diameter of the clear zone surrounding the wells containing an antibacterial agent is measured.
as §2, §3

[6] = Streptococcus faecalis, pH 5.5, radial diffusion
[7] = Candida albicans, pH 5.5, radial diffusion
[8] = Escherichia coli, pH 5.5, radial diffusion
[9] = Streptacoccus faecalis, Table 2 CNBr cleavage products, pH not given in table (method NaPB pH 5.5)
[10] = Candida albicans, Table 2 CNBr cleavage products, pH not given in table (method NaPB pH 5.5)
[11] = Escherichia coli, Table 2 CNBr cleavage products, pH not given in table (method NaPB pH 5.5)

Hemoglobin: Human hemoglobin (MW=64,500), two α and two β chains with four heme groups; crude Hb purchased from Sigma Chemicals
Minimum Inhibitory Concentration (MIC) [1, 6]: 200 to 1000 µg/mL
Minimum Inhibitory Concentration (MIC) (Candida albicans; [7]): 50 to 70 µg/mL
Minimum Inhibitory Concentration (MIC) ([2]; pH 5.5, radial diffusion): 5 µg/mL
Minimum Inhibitory Concentration (MIC) ([2]; pH 7.4, radial diffusion): 50 µg/mL
Minimum Inhibitory Concentration (MIC) [3]: 4 to 6 µg/mL
Minimum Inhibitory Concentration (MIC) (Escherichia coli MC4100 [4]): 35 to 100 µg/mL
Minimum Inhibitory Concentration (MIC) (Escherichia coli MC4100 [5]; [8]): 1 to 5 µg/mL

GNPKVKAHGKKVLGAFS [Peptide I]
Minimum Inhibitory Concentration (MIC) (Candida albicans; 3 h, pH 5.5): 10 µg/mL
Minimum Inhibitory Concentration (MIC) (Escherichia coli MC4100 [5]; MC4100, pH 5.5): 15 µg/mL

β-1: CNBr cleavage fragment of human hemoglobin β chain, residues 1-55, SEQ ID NO:9
Minimum Inhibitory Concentration (MIC) [1, 9]: >50 µg/mL
Minimum Inhibitory Concentration (MIC) (Candida albicans; [10]): 25 µg/mL
Minimum Inhibitory Concentration (MIC) (Escherichia coli MC4100 [5]; [11]): >100 µg/mL

α chains: Heme-free α chain of human hemoglobin, 141 amino acid residues, SEQ ID NO:10, separated by C4 reverse-phase HPLC
Minimum Inhibitory Concentration (MIC) [1, 6]: 3* μg/ml
Minimum Inhibitory Concentration (MIC) (Candida albicans; [7]): 7 µg/mL
Minimum Inhibitory Concentration (MIC) ([2]; pH 5.5, radial diffusion): 50 µg/mL
Minimum Inhibitory Concentration (MIC) [3]: 300 µg/mL
Minimum Inhibitory Concentration (MIC) (Escherichia coli MC4100 [5]; [8]): 1 to 2 µg/mL

β-2: CNBr cleavage fragment of human hemoglobin β chain, residues 56-146, SEQ ID NO:2
Minimum Inhibitory Concentration (MIC) [1, 9]: 8 µg/mL
activity against C. albicans (in words) (Candida albicans; C. albicans): highly active
Minimum Inhibitory Concentration (MIC) (Candida albicans; [10]): 25 µg/mL
activity against E. coli (in words) (Escherichia coli MC4100 [5]; E. coli): highly active
Minimum Inhibitory Concentration (MIC) (Escherichia coli MC4100 [5]; [11]): 5 µg/mL

α-3: CNBr cleavage fragment of human hemoglobin α chain, residues 77-141, SEQ ID NO:3
Minimum Inhibitory Concentration (MIC) [1, 9]: 7 µg/mL
Minimum Inhibitory Concentration (MIC) (Candida albicans; [10]): 10 to 50 µg/mL
Minimum Inhibitory Concentration (MIC) (Escherichia coli MC4100 [5]; [11]): 5 to 8 µg/mL

β chains: Heme-free β chain of human hemoglobin, 146 amino acid residues, SEQ ID NO:1, separated by C4 reverse-phase HPLC
Minimum Inhibitory Concentration (MIC) [1, 6]: 20 µg/mL
Minimum Inhibitory Concentration (MIC) (Candida albicans; [7]): >50 µg/mL
Minimum Inhibitory Concentration (MIC) ([2]; pH 5.5, radial diffusion): 40 to 60 µg/mL
Minimum Inhibitory Concentration (MIC) [3]: 10 µg/mL
Minimum Inhibitory Concentration (MIC) (Escherichia coli MC4100 [4]): 10 to 30 µg/mL
Minimum Inhibitory Concentration (MIC) (Escherichia coli MC4100 [5]; [8]): 1.5 to 5 µg/mL

α-1: CNBr cleavage fragment of human hemoglobin α chain, residues 1-32, SEQ ID NO:7
Minimum Inhibitory Concentration (MIC) [1, 9]: 100 µg/mL
Minimum Inhibitory Concentration (MIC) (Escherichia coli MC4100 [5]; [11]): >100 µg/mL

α-2: CNBr cleavage fragment of human hemoglobin α chain, residues 33-76, SEQ ID NO:8
Minimum Inhibitory Concentration (MIC) (Escherichia coli MC4100 [5]; [11]): >100 µg/mL
